Assay [1] addresses T1, von Hippel-Lindau disease tumor suppressor/Forkhead box protein P3 (Homo sapiens) (UniProt P40337+Q9BZS1). Put plainly: PROTAC activity at VHL/Foxp3 (unknown origin) transfected in HEK293T cells assessed as induction of Foxp3 degradation by measuring reduction in protein level at 500 to 1000 nM incubated for 24 hrs by Western blot analysis. The class given is cell-based. The following applies: dose 500-1000 nM.

Assay [2] addresses T1, von Hippel-Lindau disease tumor suppressor/Forkhead box protein P3 (Homo sapiens). The assay can be described thus: PROTAC activity at VHL/Foxp3 (unknown origin) transfected in HEK293T cells assessed as induction of Foxp3 degradation by measuring reduction in protein level at 3 uM incubated for 48 hrs in presence of MG132 by Western blot analysis. In kind it is cell-based.

Assay [3] is described as follows: Immunomodulatory activity in anti-CD3/CD28-induced C57BL/6 mouse CD4+ T cells isolated from spleen/lymph nodes assessed as reduction in foxp3+ CD4+ IL2/TGF-beta induced T regulatory cells at 4 uM incubated for 48 hrs by fluorescence activated cell sorting analysis (reference value: 6.56 %). The class given is functional. Set-up: scale not given: the % may be the effect or the level left.

A short description of assay [4]: Immunomodulatory activity in anti-CD3/CD28-induced C57BL/6 mouse CD4+ T cells isolated from spleen/lymph nodes assessed as reduction in foxp3+ CD4+ IL2/TGF-beta induced T regulatory cells at 2 uM incubated for 72 hrs by fluorescence activated cell sorting analysis (reference value: 32.7 %). The class given is functional. Set-up: scale not given: the % may be the effect or the level left.

Assay [5] relates to HEK293T. Put plainly: Inhibition of HA-tagged Foxp3 (unknown origin) nuclear translocation transfected in a HEK293T cells at 1 to 3 uM incubated for 24 hrs by DAPI staining based confocal microscopic analysis. In kind it is cell-based. The following applies: Homo sapiens, dose 1-3 µM.
The nature of assay [6]: Immunomodulatory activity in anti-CD3/CD28-induced C57BL/6 mouse CD4+ T cells isolated from spleen/lymph nodes assessed as reduction in foxp3+ CD4+ IL2/TGF-beta induced T regulatory cells at 4 uM incubated for 72 hrs by fluorescence activated cell sorting analysis (reference value: 32.7 %). In kind it is functional. Also noted: scale not given: the % may be the effect or the level left.

The nature of assay [7]: Immunomodulatory activity in anti-CD3/CD28-induced C57BL/6 mouse CD4+ T cells isolated from spleen/lymph nodes assessed as reduction in foxp3+ CD4+ IL2/TGF-beta induced T regulatory cells at 3 uM incubated for 72 hrs by fluorescence activated cell sorting analysis (reference value: 32.7 %). The class given is functional. Set-up: scale not given: the % may be the effect or the level left.

In another assay the test system is HeLa. The assay can be described thus: Inhibition of HA-tagged Foxp3 (unknown origin) nuclear translocation transfected in human HeLa cells at 1 uM incubated for 24 hrs by DAPI staining based confocal microscopic analysis. In kind it is cell-based.
Assay [8] deals with CD4+ T cell. The assay can be described thus: Immunomodulatory activity in anti-CD3/CD28-induced C57BL/6 mouse CD4+ T cells isolated from spleen/lymph nodes assessed as increase in IL2 mRNA expression in IL2/TGF-beta induced T regulatory cells measured after 72 hrs by RT-qPCR analysis. In kind it is functional, cell-based. (Quantitative PCR measures a nucleic acid by following its amplification.)

Assay [9] in a line: Immunomodulatory activity in anti-CD3/CD28-induced C57BL/6 mouse CD4+ T cells isolated from spleen/lymph nodes assessed as reduction in foxp3+ CD4+ IL2/TGF-beta induced T regulatory cells at 2 uM incubated for 48 hrs by fluorescence activated cell sorting analysis (reference value: 6.56 %). The class given is functional. Also noted: scale not given: the % may be the effect or the level left.

The target of assay [10] is T1, von Hippel-Lindau disease tumor suppressor/Forkhead box protein P3 (Homo sapiens). Put plainly: PROTAC activity at VHL/Foxp3 (unknown origin) transfected in HEK293T cells assessed as induction of Foxp3 degradation by measuring reduction in protein level at 1 uM measured after 24 to 48 hrs by Western blot analysis. The class given is cell-based. The following applies: time 24-48 hrs. On the technique in general: A western blot detects proteins with antibodies after separation by electrophoresis.

In assay [11] the test system is CD4+ T cell. The assay can be described thus: Immunomodulatory activity in anti-CD3/CD28-induced C57BL/6 mouse CD4+ T cells isolated from spleen/lymph nodes assessed as reduction in Foxp3 protein expression in IL2/TGF-beta induced T regulatory cells at 1 to 4 uM measured after 72 hrs by Western blot analysis. The class given is functional, cell-based. The following applies: dose 1-4 µM.

A short description of assay [12]: Immunomodulatory activity in anti-CD3/CD28-induced C57BL/6 mouse CD4+ T cells isolated from spleen/lymph nodes assessed as reduction in foxp3+ CD4+ IL2/TGF-beta induced T regulatory cells at 1 uM incubated for 48 hrs by fluorescence activated cell sorting analysis (reference value: 6.56 %). In kind it is functional. Set-up: scale not given: the % may be the effect or the level left.

Assay [13] concerns CD4+ T cell. Put plainly: Immunomodulatory activity in anti-CD3/CD28-induced C57BL/6 mouse CD4+ T cells isolated from spleen/lymph nodes assessed as reduction in Foxp3 mRNA expression in IL2/TGF-beta induced T regulatory cells measured after 72 hrs by RT-qPCR analysis. In kind it is functional, cell-based.
Assay [14] can be described thus: Immunomodulatory activity in anti-CD3/CD28-induced C57BL/6 mouse CD4+ T cells isolated from spleen/lymph nodes assessed as reduction in foxp3+ CD4+ IL2/TGF-beta induced T regulatory cells at 1 uM incubated for 72 hrs by fluorescence activated cell sorting analysis (reference value: 32.7 %). In kind it is functional. Set-up: scale not given: the % may be the effect or the level left.

In assay [15] the test system is CD4+ T cell. Put plainly: Immunomodulatory activity in anti-CD3/CD28-induced C57BL/6 mouse CD4+ T cells isolated from spleen/lymph nodes assessed as increase in IFN-gamma mRNA expression in IL2/TGF-beta induced T regulatory cells measured after 72 hrs by RT-qPCR analysis. In kind it is functional, cell-based.
The test system of assay [16] is HEK293T. Put plainly: Inhibition of HA-tagged Foxp3 (unknown origin) nuclear translocation transfected in a HEK293T cells at 50 to 100 uM incubated for 24 hrs by DAPI staining based confocal microscopic analysis. The class given is cell-based. As to conditions: Homo sapiens, dose 50-100 µM.
The target in assay [17] is T1, von Hippel-Lindau disease tumor suppressor/Forkhead box protein P3 (Homo sapiens). Put plainly: PROTAC activity at VHL/Foxp3 (unknown origin) transfected in HEK293T cells assessed as induction of Foxp3 degradation by measuring reduction in protein level at 10 to 1000 nM incubated for 24 hrs by Western blot analysis. The class given is cell-based. The following applies: dose 10-1000 nM.

The source made the active and inactive calls. The calls are words filed in the database; no cut-off is given here. Residues, ends and D or L forms follow the SMILES beside them. *: point of attachment. X1 = Cc1ncsc1-c1ccc(CNC(=O)[C@@H]2C[C@@H](O)CN2C(=O)[C@@H](NC(=O)COCCOCCNC(=O)CCCCCc2cn(CCCC(=O)*)nn2)C(C)(C)C)cc1; X2 = Cc1ncsc1-c1ccc(CNC(=O)[C@@H]2C[C@@H](O)CN2C(=O)[C@@H](NC(=O)CCOCCOCCc2cn(CCCC(=O)*)nn2)C(C)(C)C)cc1; X3 = Cc1ncsc1-c1ccc(CNC(=O)[C@@H]2C[C@@H](O)CN2C(=O)[C@@H](NC(=O)CCCCCc2cn(CCCC(=O)*)nn2)C(C)(C)C)cc1

T1 sequence (P40337 whole entry, looked up): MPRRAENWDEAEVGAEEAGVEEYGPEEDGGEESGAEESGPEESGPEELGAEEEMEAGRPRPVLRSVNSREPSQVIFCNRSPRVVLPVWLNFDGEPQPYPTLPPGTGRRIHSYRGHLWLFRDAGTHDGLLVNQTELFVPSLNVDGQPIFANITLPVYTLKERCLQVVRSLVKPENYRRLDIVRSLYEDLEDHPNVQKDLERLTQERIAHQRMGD
T1 sequence (Q9BZS1 whole entry, looked up): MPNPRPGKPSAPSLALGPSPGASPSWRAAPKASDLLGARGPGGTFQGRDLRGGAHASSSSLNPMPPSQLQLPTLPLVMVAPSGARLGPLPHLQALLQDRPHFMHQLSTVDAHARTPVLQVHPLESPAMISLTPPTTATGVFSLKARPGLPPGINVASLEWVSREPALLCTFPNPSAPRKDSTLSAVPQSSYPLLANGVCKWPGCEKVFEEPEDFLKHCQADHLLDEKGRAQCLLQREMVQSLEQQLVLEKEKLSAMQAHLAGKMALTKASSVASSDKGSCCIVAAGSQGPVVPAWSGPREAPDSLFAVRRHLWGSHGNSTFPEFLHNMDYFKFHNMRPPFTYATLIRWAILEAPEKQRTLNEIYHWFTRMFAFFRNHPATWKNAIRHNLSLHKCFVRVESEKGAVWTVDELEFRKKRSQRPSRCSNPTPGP

`CSCC[C@H](NC(=O)[C@H](C)NC(=O)[C@H](Cc1ccccc1)NC(=O)[C@H](Cc1ccccc1)NC(=O)[C@@H]1CCCN1C(=O)[C@H](Cc1c[nH]c2ccccc12)NC(=O)[C@H](CCSC)NC(=O)[C@H](CCCCN)NC(=O)[C@H](CCCNC(=N)N)NC(=O)[C@H](Cc1ccccc1)NC(=O)[C@H](CO)NC(=O)[C@H](CCC(N)=O)NC(=O)[C@H](Cc1ccccc1)NC(=O)[C@H](CC(=O)O)NC(=O)[C@H](CCCNC(=N)N)NC(=O)CCCn1cc(CCCCCC(=O)NCCOCCOCC(=O)N[C@H](C(=O)N2C[C@H](O)C[C@H]2C(=O)NCc2ccc(-c3scnc3C)cc2)C(C)(C)C)nn1)C(N)=O` (X1-RDFQSFRKMWPFFAM-NH2): the outcome (in assay [1]; in the assay on CD4+ T cell [8]; in assay [10]; with CD4+ T cell [11]; with CD4+ T cell [13]; with CD4+ T cell [15]) was Active. The outcome in assay [2] was inactive. Moreover, the Activity in assay [3] was 4.87%; in assay [4], 25.8%; in assay [6], 15.6%; in [7], 20.2%; in assay [9], 5.03%; in [12], 6.08%. The Activity in assay [14] came out at 28.8%. For the same molecule, in the assay on HEK293T [5], the inhibition result is listed as “Active; Comparable Effect To 100 Um Of P60 Peptide Observed At 1 Um”. Also, the inhibition entry with HeLa was “Active”.

With H-RDFQSFRKMWPFFAM-OH, the inhibition result in the assay on HEK293T [16] was “Active”.

On to `CSCC[C@H](NC(=O)[C@H](C)NC(=O)[C@H](Cc1ccccc1)NC(=O)[C@H](Cc1ccccc1)NC(=O)[C@@H]1CCCN1C(=O)[C@H](Cc1c[nH]c2ccccc12)NC(=O)[C@H](CCSC)NC(=O)[C@H](CCCCN)NC(=O)[C@H](CCCNC(=N)N)NC(=O)[C@H](Cc1ccccc1)NC(=O)[C@H](CO)NC(=O)[C@H](CCC(N)=O)NC(=O)[C@H](Cc1ccccc1)NC(=O)[C@H](CC(=O)O)NC(=O)[C@H](CCCNC(=N)N)NC(=O)CCCn1cc(CCCCCC(=O)N[C@H](C(=O)N2C[C@H](O)C[C@H]2C(=O)NCc2ccc(-c3scnc3C)cc2)C(C)(C)C)nn1)C(N)=O` (X3-RDFQSFRKMWPFFAM-NH2), for which, in [17], the outcome was inactive. The inhibition result with HeLa was “inactive”.

Regarding `CSCC[C@H](NC(=O)[C@H](C)NC(=O)[C@H](Cc1ccccc1)NC(=O)[C@H](Cc1ccccc1)NC(=O)[C@@H]1CCCN1C(=O)[C@H](Cc1c[nH]c2ccccc12)NC(=O)[C@H](CCSC)NC(=O)[C@H](CCCCN)NC(=O)[C@H](CCCNC(=N)N)NC(=O)[C@H](Cc1ccccc1)NC(=O)[C@H](CO)NC(=O)[C@H](CCC(N)=O)NC(=O)[C@H](Cc1ccccc1)NC(=O)[C@H](CC(=O)O)NC(=O)[C@H](CCCNC(=N)N)NC(=O)CCCn1cc(CCOCCOCCC(=O)N[C@H](C(=O)N2C[C@H](O)C[C@H]2C(=O)NCc2ccc(-c3scnc3C)cc2)C(C)(C)C)nn1)C(N)=O` (X2-RDFQSFRKMWPFFAM-NH2), the result in assay [17] was inactive. The inhibition result in the assay with HeLa was “inactive”.

Values taken from ChEMBL document CHEMBL6092141, “Discovery of a proteolysis targeting chimera (PROTAC) as a potent regulator of FOXP3” (2024).
